Where a name gives a salt, the structure may show the parent alone. Read-outs that look alike come from different tables or passages of the source. Where a SMILES comes first, the peptide text is derived from it.
How the values were obtained:
primary rat microglia [1] = test system: primary rat microglia
[2] = test system: fibrin-induced microglia activation; assay: Image-based assay of fibrin-induced microglia activation (HTS and dose response); format: cell-based, rat; conditions: primary microglia HTS, fibrin stimulation, compounds at 10 μM; for inhibition at 10 µM: Rattus norvegicus, Microglia, read-out: Fibrin % inhibition
[3] = test system: LPS-induced microglia activation; assay: Image-based assay of LPS-induced microglia activation (HTS and dose response); format: cell-based, rat; conditions: primary microglia HTS, LPS stimulation, compounds at 10 μM; for inhibition at 10 µM: Rattus norvegicus, Microglia, read-out: LPS % inhibition
primary rat microglia [4] = assay: Cell toxicity (dead cells, size <150 μm2) in coated fibrin (cFib) assay; conditions: primary microglia HTS, fibrin assay, dead cells (size <150 μm2);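 further: share of dead cells sized under 150 µm2 at 10 µM in fibrin-stimulated microglia HTS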
[5] = test system: fibrin- and LPS-induced microglia activation; assay: cells; format: cell-based, rat; conditions: quadrant by fibrin and LPS inhibition, HTS at 10 μM

SMILES | LPS % cell toxicity (primary rat microglia [1]; rat) [%] | inhibition at 10 µM [2] [%] | inhibition at 10 µM [3] [%] | Fibrin % cell toxicity (primary rat microglia [4]) [%] | Quadrant (FIG. 5b) [5] | LPS % cell toxicity (primary rat microglia [1]) [%] | Fibrin % inhibition [2] [%] | LPS % inhibition [3] [%] | Fibrin % inhibition ([2]; 10 µM) [%] | LPS % inhibition ([3]; 10 µM) [%]
CC(CC(C(N)=O)(c1ccccc1)c1ccccc1)N(C)C (stereo not drawn) [Aminopentamide Sulfate] | 0 | 3 | 12 | 1 | Q4 | – | – | – | – | –
Cc1c(N(C)C)c(=O)n(-c2ccccc2)n1C [Aminophenazone] | 1 | -41 | 20 | 1 | Q4 | – | – | – | – | –
Nc1nc(N)c2nc(CNc3ccc(C(=O)N[C@@H](CCC(=O)O)C(=O)O)cc3)cnc2n1 [Aminopterin] | 0 | -12 | 17 | 1 | Q4 | – | – | – | – | –
Nc1nccs1 [Aminothiazole] | 1 | -31 | 17 | 1 | Q4 | – | – | – | – | –
Cc1ccc(/N=C/N(C)/C=N/c2ccc(C)cc2C)c(C)c1 [Amitraz] | 0 | -18 | 9 | 0 | Q4 | – | – | – | – | –
CC(C)c1ccc2oc3nc(N)c(C(=O)O)cc3c(=O)c2c1 [Amlexanox] | 0 | -17 | -4 | 0 | Q4 | – | – | – | – | –
CCC(C)(C)c1ccc(CC(C)CN2C[C@@H](C)O[C@@H](C)C2)cc1 (stereo partly drawn) [Amorolfine] | 0 | 6 | 22 | 1 | Q4 | – | – | – | – | –
CC1(C)S[C@@H]2[C@H](NC(=O)[C@H](N)c3ccccc3)C(=O)N2[C@H]1C(=O)O [Ampicillin] | 0 | 1 | 15 | 1 | Q4 | – | – | – | – | –
CCCc1ncc(C[n+]2ccccc2C)c(N)n1 [Amprolium] | 0 | -10 | 8 | 1 | Q4 | – | – | – | – | –
Nc1cc(-c2ccncc2)c[nH]c1=O [Amrinone, Inamrinone] | – | – | – | 1 | Q4 | 0 | 1 | 18 | – | –
COc1ccc(C2C(=O)c3ccccc3C2=O)cc1 [Anisindione] | 0 | -15 | 13 | 0 | Q4 | – | – | – | – | –
Br.CN1[C@H]2C[C@H](OC(=O)[C@H](CO)c3ccccc3)C[C@@H]1[C@@H](O)C2 [Anisodamine Hydrobromide] | – | – | – | 1 | Q4 | 0 | −41 | 4 | – | –
c1ccc(CN(CC2=NCCN2)c2ccccc2)cc1 [Antazoline] | 1 | -2 | 17 | 1 | Q4 | – | – | – | – | –
O=C1c2c(O)cccc2Cc2cccc(O)c21 [Anthralin] | 1 | -10 | 13 | 1 | Q4 | – | – | – | – | –
Cc1cc(=O)n(-c2ccccc2)n1C [Antipyrine] | 1 | -8 | 13 | 0 | Q4 | – | – | – | – | –
C[C@@H](O[C@H]1OCCN(Cc2n[nH]c(=O)[nH]2)[C@H]1c1ccc(F)cc1)c1cc(C(F)(F)F)cc(C(F)(F)F)c1 [Aprepitant] | 0 | 20 | 1 | 1 | Q4 | – | – | – | – | –
NC(=O)C[S@@+]([O-])C(c1ccccc1)c1ccccc1 [Armodafinil] | 1 | -10 | 19 | 0 | Q4 | – | – | – | – | –
Nc1ccc([As](=O)(O)O)cc1 [Arsanilic Acid] | 0 | – | – | 0 | Q4 | – | −42 | 12 | – | –

SMILES | LPS % cell toxicity (primary rat microglia [1]; rat) [%] | inhibition at 10 µM [2] [%] | inhibition at 10 µM [3] [%] | Fibrin % cell toxicity (primary rat microglia [4]) [%] | Quadrant (FIG. 5b) [5] | LPS % cell toxicity (primary rat microglia [1]) [%] | Fibrin % inhibition [2] [%] | LPS % inhibition [3] [%] | Fibrin % inhibition ([2]; 10 µM) [%] | LPS % inhibition ([3]; 10 µM) [%]
C[C@@H]1CC[C@H]2[C@@H](C)C(=O)O[C@@H]3O[C@@]4(C)CC[C@@H]1[C@]32OO4 [Artemisinin] | 0 | -25 | 12 | 0 | Q4 | – | – | – | – | –
C[C@H]1[C@@H](O)O[C@@H]2O[C@@]3(C)CC[C@H]4[C@H](C)CC[C@@H]1[C@@]24OO3 [Artenimol] | 0 | -56 | 11 | 0 | Q4 | – | – | – | – | –
COC(=O)[C@H](Cc1ccccc1)NC(=O)[C@@H](N)CC(=O)O [Aspartame] (H-Asp-Phe-OMe) | 0 | -15 | 7 | 1 | Q4 | – | – | – | – | –
COC(=O)N[C@H](C(=O)N[C@@H](Cc1ccccc1)[C@@H](O)CN(Cc1ccc(-c2ccccn2)cc1)NC(=O)[C@@H](NC(=O)OC)C(C)(C)C)C(C)(C)C [Atazanavir] | 1 | -17 | 13 | 0 | Q4 | – | – | – | – | –
O=C1C(O)=C([C@H]2CC[C@H](c3ccc(Cl)cc3)CC2)C(=O)c2ccccc21 [Atovaquone] | 0 | -15 | 13 | 0 | Q4 | – | – | – | – | –
COc1ccc(C(=O)CC(=O)c2ccc(C(C)(C)C)cc2)cc1 [Avobenzone] | 0 | 22 | 20 | 1 | Q4 | – | – | – | – | –
[N-]=[N+]=CC(=O)OC[C@H](N)C(=O)O [Azaserine] | 0 | 8 | 2 | 1 | Q4 | – | – | – | – | –
CN1CCC(=C2c3ccccc3CCc3cccnc32)CC1 [Azatadine] | 0 | -9 | 7 | 1 | Q4 | – | – | – | – | –
O=C(O)CCCCCCCC(=O)O [Azelaic Acid] | 0 | 6 | 19 | 0 | Q4 | – | – | – | – | –
CN1CCCC(n2nc(Cc3ccc(Cl)cc3)c3ccccc3c2=O)CC1 (stereo not drawn) [Azelastine, Azelastine Hydrochloride] | – | – | – | 0 | Q4 | 0 | 5 | 11 | – | –
CCOc1nc2cccc(C(=O)OCc3oc(=O)oc3C)c2n1Cc1ccc(-c2ccccc2-c2noc(=O)[nH]2)cc1 [Azilsartan medoxomil] | 1 | 5 | 31 | 0 | Q4 | – | – | – | – | –
CC1(C)S[C@@H]2[C@H](NC(=O)[C@H](NC(=O)N3CCNC3=O)c3ccccc3)C(=O)N2[C@H]1C(=O)O [Azlocillin Sodium] | 0 | – | – | 0 | Q4 | – | – | – | −5 | 17
CC1(C)S[C@@H]2[C@H](NC(=O)[C@H](NC(=O)N3CCNC3=O)c3ccccc3)C(=O)N2[C@H]1C(=O)O [Azlocillin] | 1 | – | – | 1 | Q4 | – | – | – | −14 | 6
CCOC(=O)OC(C)OC(=O)[C@@H]1N2C(=O)[C@@H](NC(=O)[C@H](N)c3ccccc3)[C@H]2SC1(C)C (stereo partly drawn) [Bacampicillin Hydrochloride] | 0 | -12 | 8 | 1 | Q4 | – | – | – | – | –
O=C(O)CCNC(=O)c1ccc(/N=N/c2ccc(O)c(C(=O)O)c2)cc1 [Balsalazide] | 0 | -2 | 11 | 0 | Q4 | – | – | – | – | –
CCC1(CC)C(=O)NC(=O)NC1=O [Barbital] | 0 | -5 | 11 | 0 | Q4 | – | – | – | – | –
NC[C@H]1O[C@H](O[C@H]2[C@H](O)[C@@H](O[C@H]3O[C@H](CO)[C@@H](O)[C@H](N)[C@H]3O)[C@H](N)C[C@@H]2N)[C@H](N)[C@@H](O)[C@@H]1O.O=S(=O)(O)O [Becanamycin Sulfate, Bekanamycin Sulfate] | – | – | – | 1 | Q4 | 0 | −10 | 16 | – | –
CCC(=O)OCC(=O)[C@@]1(OC(=O)CC)[C@@H](C)C[C@H]2[C@@H]3CCC4=CC(=O)C=C[C@]4(C)[C@@]3(Cl)[C@@H](O)C[C@@]21C [Beclomethasone Dipropionate] | 1 | 7 | 28 | 1 | Q4 | – | – | – | – | –

From US20210330611A1, “THERAPY FOR NEUROLOGICAL DISEASES/DISORDERS” (priority 2020, published 2021)
